Assay results reported in paper PMC4841555, “Optimization of the All-D Peptide D3 for Aβ Oligomer Elimination” (PLoS ONE, 2016).
Non-standard residues stand in square brackets, D forms with d. Residues, ends and D or L forms follow the SMILES beside them.

What was measured:
Aβ(1–42) monomers = molecular target: T1, Aβ(1–42) monomers (Homo sapiens, UniProt P05067); assay: Biolayer interferometry (BLI) KD determination; assay type: binding; conditions: N-terminally biotinylated Aβ(1–42) immobilised on streptavidin biosensors, 20 mM sodium phosphate pH 7.4, steady state, Langmuir 1:1 model, mean ± SD of triplicate
T1 construct: N-terminally biotinylated Aβ(1–42) monomers were immobilized on streptavidin biosensors; purchased Bachem (Heidelberg, Germany)
T1 sequence (P05067 672-713 limits assumed): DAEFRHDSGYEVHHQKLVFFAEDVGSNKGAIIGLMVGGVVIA
Description: BLI experiments were performed using an Octet RED96 instrument (fortéBIO, PALL Life Science, Menlo Park, USA). N-terminally biotinylated Aβ(1–42) was dissolved in HFIP, lyophilized and dissolved in 2 mM aqueous sodium hydroxide (1 mg/ml) in order to destroy any pre-existing aggregates. The Aβ(1–42) solution was neutralized by dilution in running buffer (20 mM sodium phosphate buffer, pH 7.4) to a final concentration of 20 μg/ml and directly immobilized on Super Streptavidin biosensors (SSA) (fortéBIO, PALL Life Science, Menlo Park, USA) to a final depth of 3 nm. Ligand biosensors and reference biosensors were quenched with 20 μg/ml biotin for 7 min.
For KD determinations, the binding of a dilution series of DB3 (200, 100, 50, 25, 12.5, 6.25, 3.125 μM) or DBDB3 (20, 10, 5, 2.5, 1.25, 0.625, 0.3125 μM) was detected in parallel to the ligand biosensors and reference biosensors. A separate buffer cycle was used for double referencing. […]
Fig 4 KD determination of DB3 and DB3DB3 to monomeric Aβ using biolayer interferometry (BLI). N-terminally biotinylated Aβ(1–42) monomers were immobilized on streptavidin biosensors and the binding of DB3 and DB3DB3 was detected. Representative double referenced sensorgrams of a dilution series of DB3 (A) and DB3DB3 (B) are shown, including the equilibrium dissociation constants (KD) as means ± SD of data recorded in triplicate. […]

Aβ(1–42) oligomers = molecular target: T2, Aβ(1–42) oligomers (Homo sapiens, UniProt P05067); assay: QIAD assay (Aβ oligomer elimination); assay type: biochemical; conditions: 20 μM DB3, 80 μM Aβ(1–42) preincubated 4.5 h, 40 min with peptide, density gradient centrifugation, RP-HPLC, vs Aβ only control, triplicate
T2 construct: Aβ(1–42), N-terminally biotinylated Aβ(1–42) and FITC-Aβ(1–42) were purchased from Bachem; purchased Bachem (Heidelberg, Germany)
T2 sequence (P05067 672-713 limits assumed): as above
Description: The quantitative determination of interference with Aβ(1–42) aggregate size distribution (QIAD) was performed as described before. In brief, 80 μM Aβ(1–42) was incubated in 10 mM sodium phosphate buffer, pH 7.4 for 4.5 h at 22°C with 600 rpm agitation. Aβ(1–42) aggregation was continued for an additional 40 min with or without DB peptide. The obtained partial size distribution was analyzed by applying density gradient centrifugation. 100 μl of the incubated sample was placed on top of a gradient with 5 to 50% iodixanol (Optiprep, Axis-shield, Oslo, Norway) and separated at 259.000 x g for 3 h at 4°C using an ultracentrifuge (Optima MAX-XP, Beckman Coulter, Brea, USA). Fourteen fractions of 140 μl were taken from top to bottom. […] For quantification of the Aβ(1–42) amount in each fraction, reversed-phase high performance liquid chromatography (RP-HPLC) was performed using a Zorbax SB-300 C8 column (Agilent, Böblingen, Germany) connected to an Agilent 1260 Infinity system using 30% (v/v) acetonitrile with 0.1% (v/v) trifluoroacetic acid (TFA) as the mobile phase with a flow of 1 ml/min and a column temperature of 80°C. […] The UV absorption at 214 nm was measured. For quantification of the Aβ(1–42) amount, the area under the peak representing Aβ(1–42) was calculated and the molar concentration was determined using a calibration curve. […]

[1] = molecular target: T3, preformed Aβ(1–42) aggregates (Homo sapiens, UniProt P05067); assay: Aβ aggregate disassembly ELISA; assay type: biochemical; conditions: 400 nM Aβ(1–42) preincubated 22 h at 37°C, then with peptide 22 h (24 h) at 37°C, ELISA, triplicate
T3 construct: Aβ(1–42), N-terminally biotinylated Aβ(1–42) and FITC-Aβ(1–42) were purchased from Bachem; purchased Bachem (Heidelberg, Germany)
T3 sequence (P05067 672-713 limits assumed): as above
Description: Freshly dissolved monomeric Aβ(1–42) (400 nM in 500 mM Tris-buffer pH 7.4) was incubated in a humidity chamber for 22 h at 37°C in order to preform Aβ(1–42) aggregates. These preformed aggregates were coincubated with D-peptide in different concentrations (0.01, 0.05, 0.1, 0.5, 1, 5, 10, 50, 100 μM for DB3 or with half of the molar concentrations in case of DB3DB3) for additional 22 h at 37°C. The content of Aβ aggregates was measured and evaluated in the same way as the aggregation inhibition ELISA.
Fig 5 Inhibition of Aβ fibril formation and Aβ aggregation disassemble by DB3 and DB3DB3. A) Monomeric Aβ(1–42) (400 nM) was mixed with different concentrations of DB3 (0.01, 0.05, 0.1, 0.5, 1, 5, 10, 50, 100 μM) and the aggregation state of Aβ was analyzed using an Aβ aggregate specific ELISA. For DB3DB3 half of the molar concentrations compared to DB3 were used. Aβ without DB3 and DB3DB3 addition was taken as control. For DB3 an EC50 of 6 μM was calculated using a logistic fit model. DB3DB3 inhibited the formation of Aβ fibrils more efficiently with an EC50 of 7 nM. B) The disassembly properties of DB3 and DB3DB3 were measured using an Aβ aggregation specific ELISA. Monomeric Aβ(1–42) (400 nM) was preincubated in order to form fibrils and mixed with nine different concentrations of DB3 (0.01, 0.05, 0.1, 0.5, 1, 5, 10, 50, 100 μM). For DB3DB3, the molar concentrations were half those used for DB3. […] DB3DB3 disassembled Aβ aggregates at the lowest concentration […]. Thus, the EC50 could not be determined, but is < 10 nM. All data were determined in triplicate. The Mann-Whitney-U-test was performed for statistical analysis. * p< 0.05; ** p < 0.01; *** p < 0.001
The Aβ aggregate disassembly ELISA was used to analyze the effect of DB3 and DB3DB3 on preformed Aβ aggregates (Fig 5B). […] The Aβ aggregates specific ELISA was used to quantify Aβ aggregates. […] The results of measured Aβ aggregates normalized to the Aβ control were plotted against the peptide concentration. The EC50 was calculated by a logarithmic dose response function.

CC[C@@H](C)[C@@H](NC(=O)[C@H]1CCCN1C(=O)[C@H](N)CCCNC(=N)N)C(=O)N[C@@H](C(=O)N[C@H](CCCNC(=N)N)C(=O)N[C@H](CC(C)C)C(=O)N[C@H](CCCNC(=N)N)C(=O)N[C@@H](C(=O)N[C@H](Cc1c[nH]cn1)C(=O)N[C@H](CCC(N)=O)C(=O)N[C@H](CC(N)=O)C(=O)N[C@H](CCCNC(=N)N)C(N)=O)[C@H](C)O)[C@H](C)O [DB3] (H-[dR][dP][dI][dT][dR][dL][dR][dT][dH][dQ][dN][dR]-NH2)
Kd (Aβ(1–42) monomers): 74.7 µM | reduction of the amount of Aβ oligomers (Aβ(1–42) oligomers): ~ 27% | EC50 [1]: 2.5 µM
